Test results published in article PMC9322950 (Pharmaceutics, 2022).
≈ marks a conversion by molar mass, not a printed value.

How the values were obtained:
[1] = test system: absolute neutrophil count (ANC); test: Semi-mechanistic PK/PD neutropenia model (exposure–toxicity relationship, ANC time course); assay type: in vivo, human; conditions: for Emax (maximum estimated drug effect on kprol) / ωEC50 (between-subject variability) / ωEmax (between-subject variability): final PK/PD model
Method: ANC was directly retrieved from the patients' medical records up to the date of the last PK observation. The most recent ANC value in the three months before palbociclib initiation was retained as the base value. Blood sampling for ANC measurement was performed either concomitantly or separately from that for palbociclib quantification. The proliferation, maturation, and homeostatic regulation of neutrophils were mimicked by a series of 5 compartments, as described in the model developed by Friberg et al.. This structural model was directly applied to our data. The first compartment represented stem cells and proliferating precursor cells in the bone marrow with the systematic renewal of proliferative cells' production modeled by the rate constant kprol. This compartment was followed by three transit compartments to account for the delay between proliferation and maturation according to the first-order rate constant ktr, defined as n+1/MTT , where MTT is the mean transit time of neutrophils. The last compartment characterized the blood circulation with the neutrophil elimination rate constant kcirc. The rate constants kprol, ktr, and […] assumed to be equal, as in the original model. […] ANCs were log-transformed before the analysis, and an additive error on the log scale was used to describe residual variability. Owing to long computation runtime, neutropenia model development was first performed by fixing the PK parameters that were estimated together with PD parameters in the final model. Potential associations between post hoc individual parameter estimates and demographic or clinical characteristics were first visually explored and then tested in the model. […] The characteristics available for testing their effect on PD parameters were as follows: age, body weight, ALK, BILT, gamma-glutamyltransferase (GGT), albumin, AST, ALT, eGFR, association with fulvestrant, chemotherapy in the previous treatment line, and POCT measurement. […] Despite high inter-individual variability on EC50, covariates were not tested on this parameter and were substituted by covariates on Emax as recommended in good practices for exposure-response analyses. Baseline values of continuous covariates were tested on the base ANC parameter while time-varying values were tested on Emax. Continuous covariates were centered and normalized on their median value and tested by linear or allometric functions as appropriate. Missing data were imputed to the population median value. Categorical covariates were coded as 0 or 1, and missing data were first treated as an additional category and then regrouped according to their parameter estimates. The first-order conditional estimation method with interaction (FOCEI) was used for model fitting with the ADVAN4 TRANS4 subroutine for the PK model and the ADVAN6 subroutine defining a system of ordinary differential equations for the PK/PD model. Models were selected based on the improvement in standard goodness-of-fit plots, precision of parameter estimates and eta shrinkage. […] The covariate analysis was performed by forward inclusion (significant level for ΔOFV ≤ -3.84, p ≤ 0.05) followed by backward deletion (significant level for ΔOFV ≥ 7.88, p ≤ 0.005). The final PK/PD model was evaluated with a non-parametric bootstrap using 502 replicates of the initial dataset. The generated median parameters and their CI95% were compared to the final model estimates. In addition, prediction-corrected visual predictive checks (pc-VPCs) were performed to diagnose potential model misspecification by visually comparing observed concentrations with prediction percentiles.

[2] = co-administration of PPIs in fasting conditions, healthy volunteers; cited from earlier work
clinical = conditions: human, in vivo
Method: All included patients were ≥ 18 years old, diagnosed with an advanced stage breast cancer, and provided written informed consent. Blood samples taken at routinely scheduled visits plus extensive collection over a 10-12 h dosing interval were gathered during the study. Collected samples were centrifuged, and plasma was stored at -80 °C allowing its conservation until drug level measurements. […] Moreover, information was reconciled with data collected in the randomized controlled medication adherence study in a subset of patients. […] The chromatographic separation was performed on a column XSelect HSS T3 2.1 × 75 mm, 3.5 μm (Waters®, Milford, MA, USA) using a mobile phase composed of a gradient of ammonium acetate 2 mM (+0.1 formic acid) and acetonitrile (+0.1 formic acid). […] The method was validated over the clinically relevant concentration range, i.e., from 0.5 to 500 ng/mL. […] One- and two-compartment models with first- or zero-order absorption, potentially including an absorption lag time were tested. Inter-individual variability was modeled exponentially and tested sequentially on all parameters. Additive, proportional, and mixed models for residual error were compared. Potential associations between post hoc individual parameter estimates and demographic or clinical characteristics were first visually explored and then tested in the model. […] The characteristics available for testing their effect on PD parameters were as follows: age, body weight, ALK, BILT, gamma-glutamyltransferase (GGT), albumin, AST, ALT, eGFR, association with fulvestrant, chemotherapy in the previous treatment line, and POCT measurement. […] Baseline values of continuous covariates were tested on the base ANC parameter while time-varying values were tested on Emax. Continuous covariates were centered and normalized on their median value and tested by linear or allometric functions as appropriate. Missing data were imputed to the population median value. Categorical covariates were coded as 0 or 1, and missing data were first treated as an additional category and then regrouped according to their parameter estimates. The first-order conditional estimation method with interaction (FOCEI) was used for model fitting with the ADVAN4 TRANS4 subroutine for the PK model and the ADVAN6 subroutine defining a system of ordinary differential equations for the PK/PD model. Models were selected based on the improvement in standard goodness-of-fit plots, precision of parameter estimates and eta shrinkage. […] The covariate analysis was performed by forward inclusion (significant level for ΔOFV ≤ -3.84, p ≤ 0.05) followed by backward deletion (significant level for ΔOFV ≥ 7.88, p ≤ 0.005). The final PK/PD model was evaluated with a non-parametric bootstrap using 502 replicates of the initial dataset. The generated median parameters and their CI95% were compared to the final model estimates. In addition, prediction-corrected visual predictive checks (pc-VPCs) were performed to diagnose potential model misspecification by visually comparing observed concentrations with prediction percentiles.

[3] = test system: absolute neutrophil count (ANC); conditions: cited from earlier work
[4] = based on PK/PD modeling; cited from earlier work
[5] = test system: absolute neutrophil count (ANC); conditions: final PK/PD model, FIX at literature value; cited from earlier work
metastatic breast cancer = test: Exposure–response relationship: Cox proportional hazards models on progression-free survival; assay type: in vivo, human; conditions: 29 of 44 patients progressed
From the text: (§1) To consider the time lapse between radiologic exams (i.e., every 3 months), mean cumulative AUC0-24 over 90 days (AUCcum90) was then predicted. This variable was selected as the exposure metric to be tested as a time-dependent covariate for its influence on PFS. In consideration of the limited number of patients progressing (n = 29), we only included age at treatment initiation as an additional covariate, with an interaction term between age and exposure. Cox proportional hazards models were estimated in R (2021) to evaluate the effect of these covariates on PFS (significance level: p ≤ 0.05).

[6] = as above; assay type: in vivo, human; conditions: human, plasma, oral; model-predicted, including OFF-treatment periods; read-out: median AUCcum90 (mean cumulative AUC0-24 over 90 days)
From the text: as §1

[7] = bootstrap median (n = 502 samples)

ALAG (absorption lag time) (clinical): 2.0 h
ALAG (absorption lag-time) (clinical): 1.9 h
CL (clearance) (clinical): 68 L/h
CLIPP,no food (clearance with concomitant coadministration of IPP under fasting conditions) (clinical): 106 L/h
Vc (central volume of distribution) (clinical): 2730 L
Vc/F (apparent central volume of distribution) (clinical): 2778 L
clearance (clinical; CL (clearance)): 1130 mL/min
clearance (clinical; CLIPP,no food (clearance with concomitant coadministration of IPP under fasting conditions)): 1770 mL/min
Vd (clinical; Vc (central volume of distribution)): 2700 L
Vd/F (clinical; Vc/F (apparent central volume of distribution)): 2800 L
SMILES: CC(=O)c1c(C)c2cnc(Nc3ccc(N4CCNCC4)cn3)nc2n(C2CCCC2)c1=O [palbociclib, Palbociclib]
EC50 ([1]; Homo sapiens, Neutrophil, base model, attributed to data sparseness, not retained, read-out: estimated EC50 (Emax model, before fixing)): 0.0088 µg/mL (≈ 0.0197 µM)
Emax (maximum estimated drug effect on kprol) [1, 7]: 0.22
ωEC50 (between-subject variability) [1, 7]: 91 CV%
ωEmax (between-subject variability) [1, 7]: 16 CV%
Emax (maximum estimated drug effect on kprol) ([1]; estimate): 0.22
ωEC50 (between-subject variability) ([1]; estimate): 93 CV%
ωEmax (between-subject variability) ([1]; estimate): 15 CV%
decrease in AUC [2]: 62%
EC50 literature value [3]: 0.0401 µg/mL (≈ 0.0896 µM)
upper limit for trough concentration to avoid severe neutropenia [4]: 100 ng/mL
EC50 (palbociclib concentration corresponding to 50% of the maximum effect) [5]: 0.0401 µg/mL
median PFS (metastatic breast cancer): 17 months
mean cumulative AUC0-24 over 90 days (AUCcum90) [6]: 1140 ng·h/mL
